In general, Ki refers to a dissociation constant, usually derived from enzyme kinetics or from competition with a known ligand.

One test deals with PAK4 (Homo sapiens, UniProt O96013). Nature of the test: PAK4 HTRF assay. Format: biochemical. Conditions: for Ki / LE / LLE: PAK4 Ki; for Ki: HTRF, average of two independent experiments; for LE: Ligand efficiency = (−1.4 Log Ki)/(n heavy atoms); for LLE: Ligand lipophilicity efficiency = (−Log Ki) − (cLogP). (In general: Time-resolved FRET reads energy transfer from a long-lived donor to a nearby acceptor.)
PAK4, sequence (O96013 whole entry): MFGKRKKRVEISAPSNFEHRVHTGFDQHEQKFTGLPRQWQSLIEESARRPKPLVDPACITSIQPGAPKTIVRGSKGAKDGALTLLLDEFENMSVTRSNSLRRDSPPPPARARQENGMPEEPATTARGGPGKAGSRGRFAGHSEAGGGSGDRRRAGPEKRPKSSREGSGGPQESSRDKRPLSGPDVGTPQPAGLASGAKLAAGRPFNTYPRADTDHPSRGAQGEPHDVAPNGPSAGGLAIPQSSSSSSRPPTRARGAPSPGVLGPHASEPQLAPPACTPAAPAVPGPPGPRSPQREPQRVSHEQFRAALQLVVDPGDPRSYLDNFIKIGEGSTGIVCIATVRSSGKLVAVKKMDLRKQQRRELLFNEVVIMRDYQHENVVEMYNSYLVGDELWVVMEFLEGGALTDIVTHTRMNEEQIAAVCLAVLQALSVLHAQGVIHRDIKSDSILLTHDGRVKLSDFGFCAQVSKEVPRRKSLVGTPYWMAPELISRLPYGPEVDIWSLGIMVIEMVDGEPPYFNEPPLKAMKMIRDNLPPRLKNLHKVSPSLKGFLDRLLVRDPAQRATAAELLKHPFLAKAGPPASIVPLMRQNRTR

In another test the target is PAK1 (Homo sapiens, UniProt Q13153). Put plainly: PAK1 FRET-based Z'-Lyte assay. Format: biochemical. Conditions: at least two duplicate experiments, SEM < ±20%.
PAK1, sequence (Q13153 whole entry): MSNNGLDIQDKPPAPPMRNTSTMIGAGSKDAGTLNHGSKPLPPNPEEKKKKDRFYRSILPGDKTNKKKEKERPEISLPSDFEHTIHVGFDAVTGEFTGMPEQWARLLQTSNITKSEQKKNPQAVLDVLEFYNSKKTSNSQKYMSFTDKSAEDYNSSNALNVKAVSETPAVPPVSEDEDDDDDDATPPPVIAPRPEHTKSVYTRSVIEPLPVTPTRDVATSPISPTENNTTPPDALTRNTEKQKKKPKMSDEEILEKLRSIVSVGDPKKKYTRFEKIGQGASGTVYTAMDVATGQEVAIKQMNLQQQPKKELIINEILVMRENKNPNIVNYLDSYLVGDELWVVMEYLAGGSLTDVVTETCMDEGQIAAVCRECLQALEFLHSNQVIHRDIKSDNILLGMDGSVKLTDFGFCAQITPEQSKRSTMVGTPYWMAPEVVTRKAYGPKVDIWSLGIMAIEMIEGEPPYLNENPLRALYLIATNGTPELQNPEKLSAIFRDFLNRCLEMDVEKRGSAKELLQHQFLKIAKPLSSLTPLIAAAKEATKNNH

On PAK4, `Nc1nccc(-n2cc(C(=O)N3CCOCC3)c3ccc(C#CC4(O)CCCCC4)cc32)n1` [Compound 37] had a Ki of 119 nM.

At PAK4, `Nc1nccc(-n2cc(C(=O)N3CC[C@@H](N)C3)c3ccc(C#CC4(O)CCCCC4)cc32)n1` [Compound 51] returned an LE of 0.31, an LLE of 4.42 and an inhibition constant (Ki) of 25.5 nM. For the same molecule, the affinity at PAK1 corresponds to a Ki of 6340 nM.

At PAK4, `Nc1nccc(-n2cc(C(=O)N3CCNC(=O)C3)c3ccc(C#CC4(O)CCCCC4)cc32)n1` [Compound 56, 4-(1-(2-Aminopyrimidin-4-yl)-6-((1-hydroxycyclohexyl)ethynyl)-1H-indole-3-carbonyl)piperazin-2-one] had an LE of 0.31, an LLE of 5.17 and a Ki of 18.1 nM. The molecule also had a Ki at PAK1 of 4990 nM.

As for `Nc1nccc(-n2cc(C(=O)N[C@@H]3CCNC3)c3ccc(C#CC4(O)CCCCC4)cc32)n1` [Compound 52], at PAK4, the LE is reported as 0.31, the LLE was determined as 5.48 and the Ki came to 30.9 nM.

Molecule `OC1(C#Cc2ccc3ccn(-c4ccnc(Nc5ccccc5F)n4)c3c2)CCCCC1` [Compound 20] gave an inhibitory constant (Ki) on PAK4 of 396 nM.

On to `CN1CCN(C(=O)c2cn(-c3ccnc(N)n3)c3cc(C#CC4(O)CCCCC4)ccc23)CC1` [Compound 38], for which the Ki at PAK4 stood at 38 nM.

In turn, `O=[N+]([O-])c1cccc(Nc2nccc(-n3ccc4ccc(C#CC5(O)CCCCC5)cc43)n2)c1` [Compound 17] registered a Ki on PAK4 of 157 nM.

`Nc1nccc(-n2cc(C(=O)Nc3cc[nH]n3)c3ccc(C#CC4(O)CCCCC4)cc32)n1` [Compound 33] registered an inhibitory constant (Ki) at PAK4 of 239 nM.

For the molecule `NS(=O)(=O)c1cccc(Nc2nccc(-n3ccc4ccc(C#CC5(O)CCCCC5)cc43)n2)c1` [Compound 26], the affinity on PAK4 corresponds to a Ki of 83 nM.

Turning to `N#Cc1cccc(Nc2nccc(-n3ccc4ccc(C#CC5(O)CCCCC5)cc43)n2)c1` [Compound 18], on PAK4, the Ki amounted to 242 nM.

At PAK4, `Nc1cc(-n2ccc3ccc(C#CC4(O)CCCCC4)cc32)nc(N)n1` [Compound 5b] yielded an LE of 0.33 and a Ki of 370 nM.

As for `COCCNc1nccc(-n2ccc3ccc(C#CC4(O)CCCCC4)cc32)n1` [Compound 28], the Ki on PAK4 amounted to 680 nM.

The molecule `OC1(C#Cc2ccc3ccn(-c4ccnc(Nc5ccc(F)c(Cl)c5)n4)c3c2)CCCCC1` [Compound 25] came in with a Ki on PAK4 of 189 nM.

On to `Nc1nccc(-n2cc(C(=O)Nc3cc(O)[nH]n3)c3ccc(C#CC4(O)CCCCC4)cc32)n1` [Compound 35], for which, at PAK4, affinity was put at a Ki of 376 nM.

With `Nc1cc(-n2ccc3ccc(C#CC4(O)CCCCC4)cc32)ncn1` [Compound 5c], at PAK4, the LE worked out at 0.36 and the affinity corresponds to a Ki of 229 nM.

For `CNC(=O)c1cn(-c2ccnc(N)n2)c2cc(C#CC3(O)CCCCC3)ccc12` [Compound 40], affinity on PAK4 was put at a Ki of 44 nM.

At PAK4, `C[C@@H]1CN(C(=O)c2cn(-c3ccnc(N)n3)c3cc(C#CC4(O)CCCCC4)ccc23)CCN1` [Compound 54] yielded an LE of 0.27, an LLE of 3.53 and a Ki of 148 nM. For the same molecule, the “fold less potency than 55 against PAK4” value on PAK4 (relative to 55) is reported as “approximately 14 fold”.

As for `Nc1nccc(-n2ccc3ccc(C#CC4(O)CCCCC4)nc32)n1` [Compound 9], on PAK4, the LE worked out at 0.36 and the affinity, expressed as Ki, was 183 nM.

As to `CC(C)Nc1nccc(-n2ccc3ccc(C#CC4(O)CCCCC4)cc32)n1` [Compound 29], the Ki at PAK4 was 1110 nM.

Regarding `Nc1ccn(C(=O)c2cn(-c3ccnc(N)n3)c3cc(C#CC4(O)CCCCC4)ccc23)n1` [Compound 34], on PAK4, the Ki is 94 nM.

Consider `CN(C)C(=O)c1cn(-c2ccnc(N)n2)c2cc(C#CC3(O)CCCCC3)ccc12` [Compound 39], for which the Ki at PAK4 worked out at 82 nM.

At PAK4, `OC1(C#Cc2ccc3ccn(-c4ccnc(Nc5ccccc5)n4)c3c2)CCCCC1` [Compound 15] displayed a Ki of 217 nM.

Molecule `OC1(C#Cc2ccc3ccn(-c4ccnc(Nc5ccccc5C(F)(F)F)n4)c3c2)CCCCC1` [Compound 21] registered a Ki at PAK4 of 173 nM.

On PAK4, `Cc1cnc(N)nc1-n1ccc2ccc(C#CC3(O)CCCCC3)cc21` [Compound 5d] showed an LE of 0.35 and a Ki of 182 nM.

As to `Cc1cccc(Nc2nccc(-n3ccc4ccc(C#CC5(O)CCCCC5)cc43)n2)c1` [Compound 19], at PAK4, the Ki is 212 nM.

Take `Nc1nccc(-n2ncc3ccc(C#CC4(O)CCCCC4)cc32)n1` [Compound 6]: at PAK4, the LE turned out to be 0.40 and affinity was put at a Ki of 40 nM.

Regarding `Nc1nccc(-n2ccc3cnc(C#CC4(O)CCCCC4)cc32)n1` [Compound 8], at PAK4, the LE stood at 0.42 and affinity was put at a Ki of 13 nM.

Consider `Nc1nccc(-n2cc(C(=O)N3CCC[C@@H](O)C3)c3ccc(C#CC4(O)CCCCC4)cc32)n1` [Compound 49], for which, on PAK4, the LE came to 0.27; the LLE is given as 4.12; the affinity, expressed as Ki, was 207 nM. Besides, the “factor of reduced activity relative to 47” value on PAK4 (PAK4, relative to 47) turned out to be 60.

With `Nc1nccc(-n2ccc3cc(F)c(C#CC4(O)CCCCC4)cc32)n1` [Compound 5a], on PAK4, the LE was 0.38 and the inhibitory constant (Ki) stood at 82 nM.

Molecule `OC1(C#Cc2ccc3ccn(-c4ccnc(NCc5cccs5)n4)c3c2)CCCCC1` [Compound 14] returned a Ki at PAK4 of 7450 nM.

On PAK4, `OC1(C#Cc2ccc3ccn(-c4ccnc(NCc5ccccc5)n4)c3c2)CCCCC1` [Compound 10] displayed a Ki of 623 nM.

`OC1(C#Cc2ccc3ccn(-c4ccnc(NCc5ccccc5F)n4)c3c2)CCCCC1` [Compound 11] gave an inhibition constant Ki at PAK4 of 223 nM.

On PAK4, `OC1(C#Cc2ccc3ccn(-c4ccnc(Nc5cccc(Cl)c5)n4)c3c2)CCCCC1` [Compound 16] had a Ki of 105 nM.

As to `OC1(C#Cc2ccc3ccn(-c4ccnc(NCc5ccc(F)cc5)n4)c3c2)CCCCC1` [Compound 13], at PAK4, the Ki was found to be 291 nM.

On to `Cc1ccccc1Nc1nccc(-n2ccc3ccc(C#CC4(O)CCCCC4)cc32)n1` [Compound 22], for which the Ki at PAK4 is 709 nM.

`COc1ccc(Nc2nccc(-n3ccc4ccc(C#CC5(O)CCCCC5)cc43)n2)cc1` [Compound 24] yielded a Ki at PAK4 of 298 nM.

For the molecule `Nc1nccc(-n2cc(C(=O)NCc3ccccc3)c3ccc(C#CC4(O)CCCCC4)cc32)n1` [Compound 30], the Ki on PAK4 is 593 nM.

As to `Nc1nccc(-n2ccc3ncc(C#CC4(O)CCCCC4)cc32)n1` [Compound 7], on PAK4, the LE is 0.40 and affinity was put at a Ki of 36 nM.

In the case of `Nc1nccc(-n2cc(C(=O)Nc3nccs3)c3ccc(C#CC4(O)CCCCC4)cc32)n1` [Compound 32], the affinity at PAK4 corresponds to a Ki of 243 nM.

At PAK4, `Nc1nccc(-n2cc(C(=O)N[C@H]3CCNC3)c3ccc(C#CC4(O)CCCCC4)cc32)n1` [Compound 50] had an LE of 0.31, an LLE of 4.40 and a Ki of 27.2 nM.

The molecule `Nc1nccc(-n2cc(C(=O)Nc3ccccc3)c3ccc(C#CC4(O)CCCCC4)cc32)n1` [Compound 31] registered a Ki on PAK4 of 804 nM.

On PAK4, `OC1(C#Cc2ccc3ccn(-c4ccnc(NCc5ccccc5Cl)n4)c3c2)CCCCC1` [Compound 12] showed a Ki of 355 nM.

At PAK4, `Nc1nccc(-n2ccc3ccc(C#CC4(O)CCCCC4)cc32)n1` [Compound 5] gave an LE of 0.39 and a Ki of 66 nM.

These data come from article PMC9214071 (Acta Pharmaceutica Sinica. B, 2022).
